Measured values reported in US5466671A, “Apidaecin-type peptide antibiotics with improved activities and/or different antibacterial spectrum” (priority 1994, dated 1995).
Residues, ends and D or L forms follow the SMILES beside them.

Key:
[1] = system: Escherichia coli (K514); assay type: cell-based; details: agar plate, cecropin P1 5 nanomoles/well (column head: 500p), 3 mm wells
[2] = system: Enterobacter cloacae; assay: Inhibition zone assay (agar plate); assay type: cell-based; details: agar plate, cecropin P1 5 nanomoles/well (column head: 500p), 3 mm wells
[3] = system: Klebsiella pneumoniae; assay: Inhibition zone assay (agar plate); assay type: cell-based; details: agar plate, cecropin P1 5 nanomoles/well (column head: 500p), 3 mm wells
[4] = system: Salmonella typhimurium; assay: Inhibition zone assay (agar plate); assay type: cell-based; details: agar plate, cecropin P1 5 nanomoles/well (column head: 500p), 3 mm wells
[5] = system: Salmonella typhi; assay type: cell-based; details: agar plate, cecropin P1 5 nanomoles/well (column head: 500p), 3 mm wells
[6] = system: Shigella dysenteriae; assay type: cell-based; details: agar plate, cecropin P1 5 nanomoles/well (column head: 500p), 3 mm wells
[7] = system: Yersinia enterocolitica; assay: Inhibition zone assay (agar plate); assay type: cell-based; details: cecropin P1 5 nanomoles/well (column head: 500p), 3 mm wells
[8] = system: Campylobacter jejuni; assay: Inhibition zone assay (agar plate); assay type: cell-based; details: cecropin P1 5 nanomoles/well (column head: 500p), 3 mm wells
[9] = system: Acinetobacter calcoaceticus; assay: Inhibition zone assay (agar plate); assay type: cell-based; details: agar plate, cecropin P1 5 nanomoles/well (column head: 500p), 3 mm wells
[10] = system: Agrobacterium tumefaciens; assay: Inhibition zone assay (agar plate); assay type: cell-based; details: agar plate, cecropin P1 5 nanomoles/well (column head: 500p), 3 mm wells
[11] = system: Legionella pneumophila; assay type: cell-based
[12] = system: Rhizobium meliloti; assay: Inhibition zone assay (agar plate); assay type: cell-based; details: cecropin P1 5 nanomoles/well (column head: 500p), 3 mm wells
[13] = system: Haemophilus influenzae; assay: Inhibition zone assay (agar plate); assay type: cell-based; details: cecropin P1 5 nanomoles/well (column head: 500p), 3 mm wells
[14] = system: Helicobacter pylori; assay type: cell-based; details: cecropin P1, 5 nanomoles/well
[15] = system: Neisseria gonorrhoeae; assay type: cell-based; details: cecropin P1, 5 nanomoles/well
[16] = system: N. meningiditis; assay type: cell-based; details: cecropin P1, 5 nanomoles/well
[17] = system: Gardnerella vaginalis; assay type: cell-based; details: cecropin P1, 5 nanomoles/well
[18] = system: Proteus mirabilis; assay type: cell-based; details: cecropin P1, 5 nanomoles/well
[19] = system: Xanthomonas maltophilia; assay type: cell-based; details: cecropin P1, 5 nanomoles/well
[20] = system: Haemophilus ducreyi; assay type: cell-based; details: cecropin P1, 5 nanomoles/well
[21] = system: Bacteriodes melaninogenicus; assay type: cell-based; details: cecropin P1, 5 nanomoles/well
[22] = system: E. coli Apid^R; assay: Minimal inhibitory concentration (liquid culture); assay type: cell-based; details: a-b = highest concentration with growth - lowest without growth
Excerpt: For details see `Experimental Procedures`.

[23] = system: bacterial strains used in this study; assay: Minimal inhibitory concentration, inoculum effect; assay type: cell-based; details: any of the bacterial strains used
[24] = system: E. coli strain 11775Apid^R; details: 11775Apid^R vs ATCC 11775; cited from earlier work
[25] = system: E. coli 11775; assay: Minimal inhibitory concentration (liquid culture); details: a-b = highest concentration with growth - lowest without growth
[26] = system: E. coli 23802; assay: Minimal inhibitory concentration (liquid culture); details: inoculum 5000 CFU/ml; a-b = highest concentration with growth - lowest without growth
[27] = system: E. coli 25922; assay: Minimal inhibitory concentration (liquid culture); details: inoculum 1100 CFU/ml; a-b = highest concentration with growth - lowest without growth
[28] = system: S. typhimurium; assay: Minimal inhibitory concentration (liquid culture); details: inoculum 8 × 10^6 CFU/ml; a-b = highest concentration with growth - lowest without growth
[29] = system: A. calcoaceticus; assay: Minimal inhibitory concentration (liquid culture); details: inoculum 16 × 10^6 CFU/ml; a-b = highest concentration with growth - lowest without growth
[30] = system: M. morganii; assay: Minimal inhibitory concentration (liquid culture); details: inoculum 400 CFU/ml; a-b = highest concentration with growth - lowest without growth
[31] = system: Y. enterocolitica; assay: Minimal inhibitory concentration (liquid culture); details: inoculum 5000 CFU/ml; a-b = highest concentration with growth - lowest without growth

In the case of CC[C@H](C)[C@H](NC(=O)CNC(=O)[C@H](CCC(=O)O)NC(=O)[C@H](CO)NC(=O)[C@@H](NC(=O)[C@H](CCCNC(=N)N)NC(=O)[C@H](CCCCN)NC(=O)[C@H](CCCCN)NC(=O)[C@H](C)NC(=O)[C@H](CO)NC(=O)[C@H](CC(N)=O)NC(=O)[C@H](CCC(=O)O)NC(=O)[C@H](CC(C)C)NC(=O)[C@H](CCCCN)NC(=O)[C@H](CCCCN)NC(=O)[C@H](C)NC(=O)[C@@H](NC(=O)[C@H](CCCCN)NC(=O)[C@H](CO)NC(=O)[C@H](CC(C)C)NC(=O)[C@H](Cc1c[nH]c2ccccc12)NC(=O)[C@@H](N)CO)[C@@H](C)O)[C@@H](C)CC)C(=O)N[C@@H](C)C(=O)N[C@H](C(=O)N[C@@H](C)C(=O)N[C@H](C(=O)N[C@@H](CCC(N)=O)C(=O)NCC(=O)NCC(=O)N1CCC[C@H]1C(=O)N[C@@H](CCCNC(=N)N)C(=O)O)[C@@H](C)CC)[C@@H](C)CC [CP-1, cecropin P1, reference compound] (H-SWLSKTAKKLENSAKKRISEGIAIAIQGGPR-OH), the “inhibition zone diameter (number of plus signs)” value (“inhibition zone diameter” for short) [1] is reported as “+ ((+) 5-6 mm)”, the “inhibition zone diameter” value [2] is reported as “++++ ((++++) 15-19 mm)” and the “inhibition zone diameter” value [3] is reported as “+ ((+) 5-6 mm)”. For the same molecule, the “inhibition zone diameter” value [4] was “++ ((++) 7-9 mm)”, the “inhibition zone diameter” value [5] was “+++++ ((+++++) 20 or more min)” and the “inhibition zone diameter” value [6] was “++++ ((++++) 15-19 mm)”. For the same molecule, the “inhibition zone diameter” value [7] was “+++++ ((+++++) 20 or more min)”, the “inhibition zone diameter” value [8] was “+++ ((+++) 10-14 mm)” and the “inhibition zone diameter” value [9] was “++ ((++) 7-9 mm)”. For the same molecule, the “inhibition zone diameter” value [10] was “++++ ((++++) 15-19 mm)”, the “inhibition zone diameter” value [11] was “+++++ (key: (+) 5-6 mm; (++) 7-9 mm; (+++) 10-14 mm; (++++) 15-19 mm; (+++++) 20 or more min; (-) denotes that no inhibition was observed)” and the “inhibition zone diameter” value [12] was “+ ((+) 5-6 mm)”. The “inhibition zone diameter” value [13] was “++++ ((++++) 15-19 mm)”, the “measurable activity on agar plate” value [14] was “not” and the “measurable activity on agar plate” value [15] was “not”. The “measurable activity on agar plate” value [16] was “not”, the “measurable activity on agar plate” value [17] was “not” and the “measurable activity on agar plate” value [18] was “not”. The “measurable activity on agar plate” value [19] was “measurable activity”, the “measurable activity on agar plate” value [20] was “measurable activity” and the “measurable activity on agar plate” value [21] was “measurable activity”. The “minimal inhibitory concentration (MIC)” value ([22]; inoculum 12 × 10^6 CFU/ml) was 0.2 to 1 µg/mL, the “minimal inhibitory concentration (MIC)” value ([22]; inoculum 1000 CFU/ml) was 0.2 to 1 µg/mL and the inoculum effect [23] was “No inoculum effect”. The “susceptibility of mutant compared to parental strain” value [24] was “equally susceptible”, the “minimal inhibitory concentration (MIC)” value ([25]; inoculum 16 × 10^6 CFU/ml) was 0.2 to 1 µg/mL and the “minimal inhibitory concentration (MIC)” value ([25]; inoculum 1200 CFU/ml) was 0.2 to 1 µg/mL. For the same molecule, the “minimal inhibitory concentration (MIC)” value [26] was 0.2 to 1 µg/mL, the “minimal inhibitory concentration (MIC)” value [27] was 0.2 to 1 µg/mL and the “minimal inhibitory concentration (MIC)” value [28] was 1 to 2 µg/mL. The “minimal inhibitory concentration (MIC)” value [29] was 2 to 10 µg/mL, the “minimal inhibitory concentration (MIC)” value [30] was 0.2 to 1 µg/mL and the “minimal inhibitory concentration (MIC)” value [31] was 0.2 to 1 µg/mL.
